Test results as given in US10058618B2, “PAK1-blocking 1,2,3-triazolyl esters” (priority 2016, dated 2018).
pIC50: −log10 of the molar value. Like-named read-outs stand apart in the source and are kept apart here. Values belong to the compound of their own block, whether it stands above or below them.

Legend:
PAK1 = target: T1, PAK1 (Homo sapiens, UniProt Q13153); assay: Anti-PAK1 activity in cell culture, Macaroni-Western (IP) ATP-Glo kinase assay; format: cell-based
T1 construct: endogenous in cells; host or cells: A549 human lung cancer cells
Procedure: A. Cell line: Human lung cancer (A549) cells.
B. Cell seeding in 6-well plate with the culture medium (D-MEM).
C. Inhibitor Stocks in DMSO (100 mM).
D. “Macaroni-western” (IP) ATP-Glo kinase assay: The kinase activity of PAK1 in A549 (or B16F100 cells was measured by a method called “Macaroni-Western” (IP) ATP-Glo kinase assay. Briefly, cells (2×10^5 cells/mL) were pre-cultured on 6-well plate for 24 hrs in the medium. Then cells were treated with a test compound in the same medium for additional 24 hrs. Cells were disrupted by lysis buffer containing 50 mM Tris-HCl pH 7.5 and 150 mM NaCl and 1% Triton-X. For the immunoprecipitation (IP) of PAK1, the cleared cell lysates were incubated with anti-PAK1 IgG (1:50 dilution) and protein A-agarose beads for 1-2 hrs in cold room with continuous shaking by a rotary mixer (Nissin, Suginami-ku, Tokyo, Japan). The resultant IP (PAK1) from each lysate was incubated with ATP-Glo kinase assay kit (Promega) in the presence of ATP and MBP (myelin basic protein) for 1 hr at 37° C., and the remaining ATP level was measured by the ATP-dependent Luciferin-Luciferase reaction which eventually generates a luminescence. The final suspension was centrifuged, and the supernatant was transferred to 96-well plate for reading. Luminescence was recorded by MTP-880Lab microplate reader (Corona, Hitachinaka-ku, Ibaraki, Japan) with an integration time of 0.5 s per well.

[1] = test system: Human follicle dermal papilla (HFDP) cells; assay: Hair cell growth promoting (anti-alopecia) Trypan Blue assay, HFDP cells; format: cell-based
Procedure: A. Cell line: Human follicle dermal papilla (HFDP) cells.
B. Cell seeding in 96 well plate: In culture medium D-MEM medium containing 50 mL of papilla cell growth medium (PCGM), 0.5 mL of fetal calf serum (FSC), 0.5 mL of BPE, 0.25 mL of Cyp, and 0.25 mL of ITT in 51.5 mL total volume.
C. Inhibitor Stocks in DMSO (100 μM).
D. Trypan Blue assay for cell viability/growth (4): HFDP cells were collected and diluted in medium containing Dulbecco's modified minimum essential medium (D-MEM) and 10% fetal bovine serum (FBS) at cell density of 1×10^4 cell/mL. Then, 200 μL of cell suspension (2,000 cells/well) was transferred into each well of collagen-coated 96 well plate, and cells were incubated for 37° C., under 5% CO2 for 3 days. The medium was removed, and 200 μL of samples prepared in D-MEM only was added. After 4 days incubation, cell were detached from the plate by a protease called accutase, and stained with Trypan blue, and the number of unstained (viable) cells was counted in a hemocytometer.

[2] = test system: A549 human lung cancer cells; assay: Trypan Blue cell viability/growth assay, A549 cells; format: cell-based; conditions: for Potentiation of anti-cancer activity by esterization: ester vs original acid; for fold more potent than original acid, growth of A549 cells: ester vs original acid (ARC, CA or Ketorolac)
Procedure: (§1) A. Cell Lines: Human lung cancer (A549) cells carrying an oncogenic K-RAS mutant or murine melanoma (B16F10) cells
(§2) B. Cell seeding in 96 well plate: In culture medium D-MEM with or without 10% fetal bovine serum.
(§3) C. Inhibitor Stocks in DMSO (100 mM)
(§4) D. Trypan Blue Assay for Cell Viability/Growth (4): The most commonly used MTT assay for cell viability/growth is not feasible for cells treated with triazolyl derivatives, mainly because these compounds are reduced by mitochondrial reductase in viable cells, just like MTT, and converted to a purple compound which would clearly interfere with the colorimetry on which MTT assay depends. Thus, a more classic method called Trypan Blue exclusion assay should be used for determining cell viability/growth of cells treated with all triazolyl derivatives. In this assay, only dead cells are stained with Trypan Blue, while viable cells exclude this blue dye.
(§5) The assay was conducted as previously described. Briefly, A549 or B16F10 cells were seeded at 2×10^4 cells/well in 96 well plate for 24 hrs in the above medium, and then treated with one of the tested compounds in the same medium for 96 hrs. Cell were detached from the plate by a protease called accutase, and stained with Trypan blue, and the number of unstained (viable) cells was counted in a hemocytometer.

melanoma (B16F10) cells [3] = assay: Melanin content assay (PAK1-dependent melanogenesis), B16F10 cells; format: cell-based, murine; conditions: alpha-MSH 100 nM stimulated; read-out: IC50 against the PAK1-dependent melanogenesis of melanoma (B16F10) cells
Procedure: A. Cell line: Murine melanoma (B16F10) cells.
B. Cell seeding in 96 well plate: In culture medium D-MEM supplemented with 10% […] FBS (fetal bovine serum) and 1% penicillin/streptomycin (10,000 U/mL and 100 μg/mL). 2×10^4 cells were seeded in each well of 96 well plate in the medium at 37° C. for 24 hrs in a humidified atmosphere containing 5% CO2.
C. Inhibitor Stocks in DMSO (100 uM).
E. Melanin content Assay (4): The assay was performed as previously described. Cells were seeded in a 96-well plate at a density 5×10^4 cells/well in culture medium containing D-MEM supplemented with 10% FBS, 1% penicillin/streptomycin, and cultured for 24 hrs. Then, the cells were treated with a melanogenic stimulating hormone called α-MSH (100 nM), and treated with one of tested compounds for 48 hrs. After the medium was removed, cells were dissolved in 100 μL of 1 N NaOH. The mixture was heated at 90° C. for 1 hr, and the melanin content was estimated by reading the absorbance at 405 nm.

EMT6 breast cancer cells = assay: Cell-permeability (intracellular uptake) assay by HPLC; format: in vitro ADME; conditions: for fold more cell-permeable than original acid: 100 uM, uptake during first 1 hr, lower bound
Procedure: For measuring the uptake of both original acids and their esters into cells, a drug-resistant breast cancer cell line (EMT6) was chosen, as it survives the treatment with either acids or their esters at 100 uM for 24 hrs. The uptake of each compound (100 uM) into 1×10^5 cells mainly during the first 1 hr was quantitated by separation of either original acids or their esters taken by cells through HPLC column chromatography, and the amount of each compound was estimated by photometry at the wavelength 322 nm.

melanoma (B16F10) cells [4] = assay: Trypan Blue cell viability/growth assay, B16F10 cells; format: cell-based, murine
Procedure: as §1, §2, §3, §4, §5

recombinant human COX-2 = target: T2, recombinant human COX-2 (Homo sapiens, UniProt P35354); assay: In vitro anti-COX-2 activity; format: biochemical
T2 sequence (P35354 18-604): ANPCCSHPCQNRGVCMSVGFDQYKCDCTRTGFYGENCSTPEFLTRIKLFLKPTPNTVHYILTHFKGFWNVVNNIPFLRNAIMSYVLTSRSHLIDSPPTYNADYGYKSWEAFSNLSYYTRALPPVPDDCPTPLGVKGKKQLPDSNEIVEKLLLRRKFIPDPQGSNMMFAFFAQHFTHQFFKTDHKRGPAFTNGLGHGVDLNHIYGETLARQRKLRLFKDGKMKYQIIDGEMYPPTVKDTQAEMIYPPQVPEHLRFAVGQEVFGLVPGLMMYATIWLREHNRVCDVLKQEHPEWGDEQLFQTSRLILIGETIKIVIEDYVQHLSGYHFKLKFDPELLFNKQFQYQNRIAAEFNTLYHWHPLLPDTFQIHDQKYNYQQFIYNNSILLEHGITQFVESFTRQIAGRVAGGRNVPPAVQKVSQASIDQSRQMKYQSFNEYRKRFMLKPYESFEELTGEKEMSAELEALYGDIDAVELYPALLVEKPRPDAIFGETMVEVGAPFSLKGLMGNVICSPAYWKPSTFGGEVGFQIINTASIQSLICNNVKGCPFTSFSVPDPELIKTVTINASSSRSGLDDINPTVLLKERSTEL
Procedure: The effect of Ketorolac and PRC-15K (both in racemic form) on COX-2 was assayed in vitro, essentially according to the procedure previously published (5). Briefly, the recombinant human COX-2 was treated with either Ketorolac or PRC-15K at concentrations ranging 5-200 nM for 2 or 5 min (depending on the chemical nature of the test compounds) at room temperature in the presence of arachidonic acid, to measure the remaining COX-2 activity at 590 nm. The COX-2 activity without these test chemicals was used as the negative control for calculating their anti-COX-2 activity.

[5] = ester vs parent acid (CA or UA); cited from earlier work
[6] = 96 hrs treatment, Trypan Blue exclusion, read-out: IC50 against the growth of A549 human lung cancer cells
[7] = Homo sapiens, growth of A459 lung cancer cell line (so in the source), read-out: IC50 of Original Acids

T1 sequence (Q13153 whole entry): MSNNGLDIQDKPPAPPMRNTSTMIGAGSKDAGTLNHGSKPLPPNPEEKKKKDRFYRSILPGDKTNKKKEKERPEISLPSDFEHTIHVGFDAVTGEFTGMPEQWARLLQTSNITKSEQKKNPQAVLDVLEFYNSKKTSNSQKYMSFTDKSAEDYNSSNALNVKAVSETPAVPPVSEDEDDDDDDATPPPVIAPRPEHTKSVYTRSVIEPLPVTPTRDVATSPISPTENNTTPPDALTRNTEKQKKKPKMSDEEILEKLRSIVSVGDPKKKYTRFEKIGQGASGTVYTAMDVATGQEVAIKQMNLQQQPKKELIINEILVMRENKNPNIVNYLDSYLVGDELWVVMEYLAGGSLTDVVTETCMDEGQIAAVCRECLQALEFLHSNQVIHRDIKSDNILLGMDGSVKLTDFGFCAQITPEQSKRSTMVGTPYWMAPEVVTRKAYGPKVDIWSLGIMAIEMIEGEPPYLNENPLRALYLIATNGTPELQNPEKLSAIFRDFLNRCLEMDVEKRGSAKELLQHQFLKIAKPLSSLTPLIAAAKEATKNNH

anti-PAK1 activity in cell culture, inhibition (PAK1; at 1 mM): around 45% | pIC50 [2, 6]: 6.60 | pIC50 (melanoma (B16F10) cells [3]): 6.60 | fold more cell-permeable than original acid (EMT6 breast cancer cells): at least 8 fold
SMILES: COc1ccccc1-n1cc(COC(=O)/C=C/c2cc(CC=C(C)C)c(O)c(CC=C(C)C)c2)nn1 [PRC-15A]
ED for the growth of human hair (HFDP) cells ([1]; growth promotion): 20 nM | fold more potent than ARC, growth of HFDP cells ([1]; vs ARC): 1000 fold | Potentiation of anti-cancer activity by esterization [2]: (100 fold) | fold more potent than original acid, growth of A549 cells [2]: 100 fold

anti-PAK1 activity in cell culture, inhibition (PAK1; at 1 μM): around 35% | pIC50 [2, 6]: 6.65 | pIC50 (melanoma (B16F10) cells [3]): 6.65 | fold more cell-permeable than original acid (EMT6 breast cancer cells): at least 20 fold | fold more cell-permeable than original acid, probable upper estimate (EMT6 breast cancer cells; 'probably up to'): up to 70 fold
SMILES: COc1ccccc1-n1cc(COC(=O)/C=C/c2ccc(O)c(O)c2)nn1 [PRC-15C]
Potentiation of anti-cancer activity by esterization [2]: (>400 fold) | fold more potent than original acid, growth of A549 cells [2]: over 400 fold

The next lines start with the compound.

SMILES: CC(C)=CCc1cc(C=CC(=O)O)cc(CC=C(C)C)c1O [ARC, 3,5-diprenyl-4-hydroxycinnamic acid, reference compound]
pIC50 [2, 7]: 4.60

SMILES: O=C(O)/C=C/c1ccc(O)c(O)c1 [CA, caffeic acid, reference compound]
pIC50 [2, 7]: 4.00

SMILES: COc1ccccc1-n1cc(COC(=O)C2CCn3c(C(=O)c4ccccc4)ccc32)nn1 (racemic) [PRC-15K]
inhibition at 0.07 µM (PAK1; at 70 nM): ~50% | fold more potent than Ketorolac, anti-PAK1 activity in cell culture (PAK1; vs Ketorolac): over 30 fold | pIC50 ([2]; A549, 50/50 racemic mixture, growth of human cancer cells, read-out: IC50): ~7.62 | pIC50 ([2]; Homo sapiens, A549, 96 hrs treatment, Trypan Blue exclusion, read-out: IC50 against the growth of A549 human lung cancer cells): 7.62 | pIC50 ([2]; Homo sapiens, growth of A459 lung cancer cell line (so in the source), read-out: IC50 of Esters): 7.62 | Potentiation of anti-cancer activity by esterization [2]: (>500 fold) | fold more potent than original acid, growth of A549 cells [2]: over 500 fold | times potent as much as compound 7 ([2]; vs racemic ketorolac): more than 500 times | pIC50 (melanoma (B16F10) cells [4]; Mus musculus, B16-F10, read-out: IC50 against the PAK1-independent growth of melanoma (B16F10) cells): 8.30 | fold more potent than Ketorolac, growth of B16F10 cells (melanoma (B16F10) cells [4]; vs Ketorolac): over 6000 fold | pIC50 (recombinant human COX-2; in vitro, racemic form, read-out: IC50 against human COX-2): 8.22 | fold more potent than Ketorolac, anti-COX-2 (recombinant human COX-2; vs Ketorolac): over 20 fold | fold more cell-permeable than original acid (EMT6 breast cancer cells): at least 10 fold

SMILES: O=C(c1ccccc1)c1ccc2n1CCC2C(=O)O (racemic) [Ketorolac, 5-benzoyl-2,3-dihydro-1H-pyrrolizine-1-carboxylic acid, reference compound]
pIC50 ([2]; Homo sapiens, A549, racemic mixture, our unpublished observation, read-out: IC50 against the growth of human cancer cells): 4.89 | pIC50 [2, 7]: 4.89

SMILES: O=C(/C=C/c1ccc(O)c(O)c1)OCCc1ccccc1 [CAPE, caffeic acid phenethyl ester]
fold more potent (cell-permeable) than parent acid [5]: 10 fold
